Where two headings read alike, the source gives them in different places.
Assays:
IgG = assay: Affinity to IgG by surface plasmon resonance (SPR); format: binding
Protocol: Immobilization levels ranging from 1000-1300 resonance units (RU) are obtained. The running buffer is 10 mM HEPES, pH 7.4, 400 mM NaCl, 0.005% P20, […].

HepG2 cells = assay: Cellular uptake assay of AF488-labeled antibody (HepG2); format: cell-based
Method in brief: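 Ternary-complex uptake via ASGPR was imaged after fixation: the read-out is AF488-positive HepG2 cells divided by total DAPI nuclei. Degrader dilutions (IgG- or DNP-based, 0.1% DMSO final) were co-incubated 6 h at 37° C. with 100 nM of the corresponding fluorescent antibody.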

ASGPR = target: T1, ASGPR (Homo sapiens, UniProt P07306); assay: Affinity to ASGPR by surface plasmon resonance (SPR)
T1 sequence (P07306 1-291): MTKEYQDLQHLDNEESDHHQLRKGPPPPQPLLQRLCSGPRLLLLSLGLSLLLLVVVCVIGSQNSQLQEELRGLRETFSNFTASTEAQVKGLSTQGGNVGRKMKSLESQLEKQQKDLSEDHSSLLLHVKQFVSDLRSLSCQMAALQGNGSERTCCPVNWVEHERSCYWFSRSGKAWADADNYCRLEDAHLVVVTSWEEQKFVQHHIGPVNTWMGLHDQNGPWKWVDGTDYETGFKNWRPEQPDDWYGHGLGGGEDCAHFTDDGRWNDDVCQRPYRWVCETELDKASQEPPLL
Protocol: Biotinylated ASGPR (20 μg/ml) was immobilized on SA sensor chips (GE Healthcare) at flow rate of 5 μl/min for 90 sec reaching an immobilization level ranging from 500-3000 resonance units (RU). The running buffer was 50 mM HEPES, pH7.5, 150 mM NaCl, 50 mM CaCl2), 0.01% P20, 3% DMSO. The concentration of compounds vary from 2 mM to 5 nM depending on Kd values. The compounds are diluted 2 or 3-fold with 8 concentration points. Solutions containing serially diluted compounds are injected at a flow rate of 40 μL/min for 150-300 sec followed by a 90-300 sec dissociation phase for each concentration. The surface was regenerated using 50 mM HEPES, pH 7.5, 150 mM NaCl, 5 mM EDTA, 0.01% P20, 3% DMSO.
Data was processed using the analysis software in Biacore 8K to perform background subtraction, double referencing, and solvent correction. Values of affinity expressed as the dissociation constants (Kd) were determined by fitting the steady state binding responses (RUs) as a function of the concentration ([Compound]) using the following equation: RU=RUmax/(KD+[Compound]), where RU max is the calculated maximal response. Where appropriate double-referenced data were fit to using a 1:1 binding model for kinetic analysis.

[1] = target: T2, ASGPR receptor on the cell surface (HepG2 cells) (Homo sapiens, UniProt P07306); assay: Ternary complex formation assay (flow cytometry, HepG2); format: cell-based
T2 construct: host or cells: HepG2
T2 sequence (P07306 1-291): T1 sequence (P07306 1-291)
T2 sequence (P07307 1-311 partner): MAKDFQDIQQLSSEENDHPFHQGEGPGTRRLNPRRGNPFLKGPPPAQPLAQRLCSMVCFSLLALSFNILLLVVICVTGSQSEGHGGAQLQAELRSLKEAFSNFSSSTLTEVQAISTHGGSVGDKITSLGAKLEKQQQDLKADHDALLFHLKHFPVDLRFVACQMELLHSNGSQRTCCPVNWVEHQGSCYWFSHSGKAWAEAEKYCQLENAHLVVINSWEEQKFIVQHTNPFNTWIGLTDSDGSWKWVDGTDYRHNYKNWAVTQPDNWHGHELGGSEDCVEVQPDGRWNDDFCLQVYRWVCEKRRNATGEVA
Method in brief: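 HepG2 cells (1×10^5/well) incubated 1 h at 4 °C with 100 nM AF488-labeled anti-human IgG plus serial IgG-based degrader, or 100 nM AF488 rabbit anti-DNP plus serial DNP-based degrader. After washing, cell-associated AF488 MFI read by flow cytometry; peak MFI marks optimal degrader concentration for ternary complex.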

[2] = HepG2 cells, read-out: Uptake EC50
[3] = HepG2 cells, ternary complex formation, read-out: TCF EC50
[4] = Biacore 8K, 25° C., IgG on CM5 chip, read-out: IgG SPR Binding Kd
[5] = HepG2 cells, 100 nM AF488-labeled antibody, 37° C. for 6 hours, class symbols, read-out: Uptake Assay EC50

| Kd (IgG; SPR, read-out: IgG KD) [nM] | EC50 [1, 3] [nM] | SMILES | EC50 (HepG2 cells; [2]) [nM] | Kd (ASGPR) [nM] | Kd (IgG; [4]) [nM] | EC50 (HepG2 cells; [5]) [nM] | EC50 [1] [nM] | also measured |
| --- | --- | --- | --- | --- | --- | --- | --- | --- |
| < 100 | 500 to 1000 | CC(C)C[C@@H]1NC(=O)[C@H](Cc2cnc[nH]2)NC(=O)[C@H](Cc2c[nH]c3ccccc23)NC(=O)[C@H](C)NC(=O)[C@@H]2CSSC[C@H](NC(=O)[C@H](Cc3c[nH]c4ccccc34)NC(=O)[C@H](C(C)C)NC(=O)[C@H](CC(C)C)NC(=O)[C@H](CCC(=O)O)NC(=O)CNC1=O)C(=O)N[C@@H]([C@@H](C)O)C(=O)N1CCC[C@@H]1C(=O)N1C[C@@H](NC(=O)c3ccc(-c4ccc(C(=O)NC[C@H]5OC[C@H](Nc6cncc(C(F)(F)F)n6)[C@@H](O)[C@H]5O)cc4)cc3)C[C@H]1C(=O)N[C@@H](CC(=O)O)C(=O)N2 [Compound 72] | < 100 | < 100 | – | – | – | – |
| – | – | CC(C)C[C@@H]1NC(=O)[C@H](Cc2c[nH]cn2)NC(=O)[C@H](Cc2c[nH]c3ccccc23)NC(=O)[C@H](C)NC(=O)[C@@H]2CSSC[C@H](NC(=O)[C@H](Cc3c[nH]c4ccccc34)NC(=O)[C@H](C(C)C)NC(=O)[C@H](CC(C)C)NC(=O)[C@H](CCC(=O)O)NC(=O)CNC1=O)C(=O)N[C@@H]([C@@H](C)O)C(=O)N1CCC[C@@H]1C(=O)N1C[C@@H](NC(=O)COCCOCC(=O)NC(COCCC(=O)NCCOCCOCCOCCOC[C@H]3OC[C@H](Nc4cncc(C(F)(F)F)n4)[C@@H](O)[C@H]3O)COCCC(=O)NCCOCCOCCOCCOC[C@H]3OC[C@H](Nc4cncc(C(F)(F)F)n4)[C@@H](O)[C@H]3O)C[C@H]1C(=O)N[C@@H](CC(=O)O)C(=O)N2 [Compound 41] | – | – | < 100 | < 100 | < 100 | – |
| < 100 | < 100 | CC(C)C[C@@H]1NC(=O)[C@H](Cc2cnc[nH]2)NC(=O)[C@H](Cc2c[nH]c3ccccc23)NC(=O)[C@H](C)NC(=O)[C@@H]2CSSC[C@H](NC(=O)[C@H](Cc3c[nH]c4ccccc34)NC(=O)[C@H](C(C)C)NC(=O)[C@H](CC(C)C)NC(=O)[C@H](CCC(=O)O)NC(=O)CNC1=O)C(=O)N[C@@H]([C@@H](C)O)C(=O)N1CCC[C@@H]1C(=O)N1C[C@@H](NC(=O)CCN3CCN(CC(=O)NC[C@H]4OC[C@H](Nc5cncc(C(F)(F)F)n5)[C@@H](O)[C@H]4O)CC3)C[C@H]1C(=O)N[C@@H](CC(=O)O)C(=O)N2 [Compound 63] | < 100 | 100 to 500 | – | – | – | – |
| – | – | CC(C)C[C@@H]1NC(=O)[C@H](Cc2cnc[nH]2)NC(=O)[C@H](Cc2c[nH]c3ccccc23)NC(=O)[C@H](C)NC(=O)[C@@H]2CSSC[C@H](NC(=O)[C@H](Cc3c[nH]c4ccccc34)NC(=O)[C@H](C(C)C)NC(=O)[C@H](CC(C)C)NC(=O)[C@H](CCC(=O)O)NC(=O)CNC1=O)C(=O)N[C@@H]([C@@H](C)O)C(=O)N1CCC[C@@H]1C(=O)N1C[C@@H](NC(=O)CCCc3cn(CCCCCC(=O)NC(COCCC(=O)NCCOCCOCCOCCOC[C@H]4OC[C@H](Nc5cncc(C(F)(F)F)n5)[C@@H](O)[C@H]4O)COCCC(=O)NCCOCCOCCOCCOC[C@H]4OC[C@H](Nc5cncc(C(F)(F)F)n5)[C@@H](O)[C@H]4O)nn3)C[C@H]1C(=O)N[C@@H](CC(=O)O)C(=O)N2 [Compound 52] | – | – | < 100 | < 100 | – | EC50 ([1]; HepG2 cells, 100 nM AF488-labeled antibody, 1 hour at 4° C., class symbols, read-out: Ternary Complex EC50): < 100 nM |
| < 100 | < 100 | CC(C)C[C@@H]1NC(=O)[C@H](Cc2cnc[nH]2)NC(=O)[C@H](Cc2c[nH]c3ccccc23)NC(=O)[C@H](C)NC(=O)[C@@H]2CSSC[C@H](NC(=O)[C@H](Cc3c[nH]c4ccccc34)NC(=O)[C@H](C(C)C)NC(=O)[C@H](CC(C)C)NC(=O)[C@H](CCC(=O)O)NC(=O)CNC1=O)C(=O)N[C@@H]([C@@H](C)O)C(=O)N1CCC[C@@H]1C(=O)N1C[C@H](NC(=O)COCCOCC(=O)NC[C@H]3OC[C@H](Nc4cncc(C(F)(F)F)n4)[C@@H](O)[C@H]3O)C[C@H]1C(=O)N[C@@H](CC(=O)O)C(=O)N2 [Compound 91] | < 100 | – | – | – | – | – |
| – | – | O=C(CCOCCNC(=O)COCCOCCOCCNc1ccc([N+](=O)[O-])cc1[N+](=O)[O-])NCCOCCOCCOCCOC[C@@]12CO[C@@H](O1)[C@H](Nc1nc(Cl)ns1)[C@@H](O)[C@H]2O [Compound 29, N-(1-((1S,2R,3R,4R,5S)-4-((3-chloro-1,2,4-thiadiazol-5-yl)amino)-2,3-dihydroxy-6,8-dioxabicyclo[3.2.1]octan-1-yl)-2,5,8,11-tetraoxatridecan-13-yl)-3-((14-((2,4-dinitrophenyl)amino)-4-oxo-6,9,12-trioxa-3-azatetradecyl)oxy)propanamide] | – | 100 to 500 | – | – | – | EC50 (HepG2 cells; Homo sapiens, HepG2, 6 h, read-out: Uptake Assay EC50 (nM)): < 100 nM; EC50 ([1]; Ternary Complex EC50 (nM), HepG2 cells, 100 nM AF488-labeled antibody, 1 hour at 4° C., class symbols): < 100 nM |
| – | – | CC(C)C[C@@H]1NC(=O)[C@H](Cc2c[nH]cn2)NC(=O)[C@H](Cc2c[nH]c3ccccc23)NC(=O)[C@H](C)NC(=O)[C@@H]2CSSC[C@H](NC(=O)[C@H](Cc3c[nH]c4ccccc34)NC(=O)[C@H](C(C)C)NC(=O)[C@H](CC(C)C)NC(=O)[C@H](CCC(=O)O)NC(=O)CNC1=O)C(=O)N[C@@H]([C@@H](C)O)C(=O)N1CCC[C@@H]1C(=O)N1C[C@@H](NC(=O)CNC(COCCC(=O)NCCOCCOCCOCCO[C@@H]3O[C@H](CO)[C@H](O)[C@H](O)[C@H]3Nc3cncc(C(F)(F)F)n3)COCCC(=O)NCCOCCOCCOCCO[C@@H]3O[C@H](CO)[C@H](O)[C@H](O)[C@H]3Nc3cncc(C(F)(F)F)n3)C[C@H]1C(=O)N[C@@H](CC(=O)O)C(=O)N2 [Compound 71] | < 100 | < 100 | – | – | < 100 | – |
| – | – | CC(C)C[C@@H]1NC(=O)[C@H](Cc2c[nH]cn2)NC(=O)[C@H](Cc2c[nH]c3ccccc23)NC(=O)[C@H](C)NC(=O)[C@@H](NC(=O)[C@H](CC(=O)O)NC(=O)CCOCCOCCOCCOCCNC(=O)CCCc2cn(CCCCCC(=O)NC(COCCC(=O)NCCOCCOCCOCCOC[C@H]3OC[C@H](Nc4nccc(C(F)(F)F)n4)C[C@H]3O)COCCC(=O)NCCOCCOCCOCCOC[C@H]3OC[C@H](Nc4nccc(C(F)(F)F)n4)C[C@H]3O)nn2)CSSC[C@@H](C(=O)N[C@H](C(N)=O)[C@@H](C)O)NC(=O)[C@H](Cc2c[nH]c3ccccc23)NC(=O)[C@H](C(C)C)NC(=O)[C@H](CC(C)C)NC(=O)[C@H](CCC(=O)O)NC(=O)CNC1=O [Compound 88] | > 1000 | > 1000 | – | – | > 1000 | – |

| SMILES | Kd (IgG; SPR, read-out: IgG KD) [nM] | EC50 [1, 3] [nM] | EC50 (HepG2 cells; [2]) [nM] | Kd (ASGPR) [nM] | Kd (IgG; [4]) [nM] | EC50 (HepG2 cells; [5]) [nM] | EC50 [1] [nM] | also measured |
| --- | --- | --- | --- | --- | --- | --- | --- | --- |
| CC(C)C[C@@H]1NC(=O)[C@H](Cc2c[nH]cn2)NC(=O)[C@H](Cc2c[nH]c3ccccc23)NC(=O)[C@H](C)NC(=O)[C@@H]2CSSC[C@H](NC(=O)[C@H](Cc3c[nH]c4ccccc34)NC(=O)[C@H](C(C)C)NC(=O)[C@H](CC(C)C)NC(=O)[C@H](CCC(=O)O)NC(=O)CNC1=O)C(=O)N[C@@H]([C@@H](C)O)C(=O)N1CCC[C@@H]1C(=O)N1C[C@@H](NC(=O)CNC(COCCC(=O)NCCOCCOCCOCCOC[C@H]3OC[C@H](Nc4cncc(C(F)(F)F)n4)[C@@H](O)[C@H]3O)COCCC(=O)NCCOCCOCCOCCOC[C@H]3OC[C@H](Nc4cncc(C(F)(F)F)n4)[C@@H](O)[C@H]3O)C[C@H]1C(=O)N[C@@H](CC(=O)O)C(=O)N2 [Compound 45] | < 100 | – | – | < 100 | – | < 100 | < 100 | – |
| CC(C)C[C@@H]1NC(=O)[C@H](Cc2c[nH]cn2)NC(=O)[C@H](Cc2c[nH]c3ccccc23)NC(=O)[C@H](C)NC(=O)[C@@H]2CSSC[C@H](NC(=O)[C@H](Cc3c[nH]c4ccccc34)NC(=O)[C@H](C(C)C)NC(=O)[C@H](CC(C)C)NC(=O)[C@H](CCC(=O)O)NC(=O)CNC1=O)C(=O)N[C@@H]([C@@H](C)O)C(=O)N1CCC[C@@H]1C(=O)N1C[C@@H](NC(=O)CCOCCOCCOCCOCCNC(=O)CCCc3cn(CCCCCC(=O)NC(COCCC(=O)NCCOCCOCCOCCOC[C@H]4OC[C@H](Nc5nccc(C(F)(F)F)n5)[C@@H](O)[C@H]4O)COCCC(=O)NCCOCCOCCOCCOC[C@H]4OC[C@H](Nc5nccc(C(F)(F)F)n5)[C@@H](O)[C@H]4O)nn3)C[C@H]1C(=O)N[C@@H](CC(=O)O)C(=O)N2 [Compound 16] | < 100 | – | < 100 | < 100 | < 100 | < 100 | < 100 | Kd (ASGPR; read-out: ASGPR KD): < 100 nM; EC50 ([1]; read-out: Ternary Complex EC50): < 100 nM |

From US12091402B2 (Avilar Therapeutics, Inc., priority 2021, dated 2024)
